We go through 11 compounds from patent US20260049071A1, “PROTEIN TYROSINE KINASE INHIBITOR AND MEDICAL USE THEREOF” (BEYANG THERAPEUTICS CO., LTD., priority 2022, published 2026).

In one data set the test system is melanin. Kind of data set: Binding capacity of compounds to melanin. In kind it is in vitro ADME. To be noted: Sepia officinalis (cuttlefish), melanin suspension (1 mg/mL); 1 mg/mL melanin suspension in PBS pH 7.4, 2 μM compound, 2 h at 37° C.; read-out: Fu % (percentage of free drug, not bound to melanin). An excerpt:
Pigmented eye tissues contain melanin in intracellular melanosomes. Drugs bind to melanin to varying degrees, ranging from non-binding to extensive binding. Therefore, melanin binding is an important feature that affects drug delivery and biodistribution in the eye. The binding capacity of a compound to the melanin must be considered in the development of ophthalmic drugs.
Melanin was derived from the melanin of cuttlefish (Sepia officinalis) and was commercially available from Sigma Aldrich (St Louis, MO).
First, prepare 1 mg/mL melanin suspension with PBS (pH 7.4). As a washing step for the matrix, centrifuge the suspended particles for 5 min at 3000 rpm. Resuspend the resulting particles in a fresh PBS buffer, heat to 37° C. over continuous shaking and incubate it for 1 h. Accurately pipette 2 μL of the test stock solution (0.1 mM) into 98 μL of melanin suspension (1 mg/mL) to achieve a final incubation concentration of 2 μM. Similarly, accurately pipette 2 μL of the stock solution (0.1 mM) to 98 μL of PBS buffer (containing 0.1% BSA) as a blank control sample. Incubate the samples in a shaker (80-90 rpm) for 2 h at 37° C. Then, centrifuge the samples at room temperature. Pipette 50 μL of the supernatant and add 50 μL of precipitant (containing an internal standard). After protein precipitation of all the above samples, centrifuge the samples to collect the supernatants, dilute the supernatants with water (if necessary) and inject them for analysis. At the same time, measure the positive controls, including the high-binding compounds Sunitinib and chloroquine and the low-binding compound celecoxib. Establish an LC-MS/MS method for determining compound concentrations, and calibrate the peak area ratio of analyte/internal standard (Analyte/AIS) in the measured sample by the dilution factor to take it as an alternative concentration for the sample for data processing. The binding rate (Fh) of a compound in melanin was calculated as: […]
Ctest was the concentration of the compound in the melanin-incubated sample or the peak area ratio of the test compound to the internal standard. Ccontrol was the concentration of the compound in the blank control sample or the peak area ratio of the test compound to the internal standard. Percentage of free drug (Fu %)=100−Fb The binding rates of the compounds of the present invention to melanin are shown in the table below: […]

Another data set has as its target EGFR (Homo sapiens (Human), UniProt P00533). Kind of data set: Kinase inhibition, Mobility Shift Assay (EGFR). In kind it is biochemical. How it is done: (§1) This assay directly monitored the ability of compounds to inhibit kinase phosphorylation by measuring non-phosphorylated and phosphorylated substrates in kinase reactions by using Mobility Shift Assays/IMAP™ analysis.
(§2) Add the kinase and DTT to 1× kinase buffer to form a 2.5× kinase solution; transfer 10 μL of 2.5× kinase solution to a 384-well reaction plate and add 1× kinase buffer to negative control wells. Incubate the plate for 10 min at room temperature; add FAM-labeled peptides, MgCl2, ATP and other reagents to 1× kinase buffer to form a 2.5× substrate solution; transfer 10 μL of the above 2.5× substrate solution to the 384-well reaction plate; incubate the plate at 28° C. for different times, and add 25 μL of stop solution to the 384-well reaction plate to stop the reaction. Read the conversion ratio data on CaliperEZ Reader II. Convert conversion rates into inhibition ratio data.
(§3) “Min” indicates the readout of the control well without the addition of kinase; and “Max” indicates the readout of the control well with the addition of DMSO. Fit IC50 values with XLFit excel add-in version 5.4.0.8.
(§4) X indicates the log value of compound concentration, and Y indicates the inhibition ratio (% inhibition).

The next data set has as its target KDR (VEGFR2) (Homo sapiens (Human), UniProt P35968). Kind of data set: Kinase inhibition, Mobility Shift Assay (VEGFR2). It counts as biochemical. How it is done:
as §1, §2, §3, §4

Chain of EGFR (P00533 25-1210): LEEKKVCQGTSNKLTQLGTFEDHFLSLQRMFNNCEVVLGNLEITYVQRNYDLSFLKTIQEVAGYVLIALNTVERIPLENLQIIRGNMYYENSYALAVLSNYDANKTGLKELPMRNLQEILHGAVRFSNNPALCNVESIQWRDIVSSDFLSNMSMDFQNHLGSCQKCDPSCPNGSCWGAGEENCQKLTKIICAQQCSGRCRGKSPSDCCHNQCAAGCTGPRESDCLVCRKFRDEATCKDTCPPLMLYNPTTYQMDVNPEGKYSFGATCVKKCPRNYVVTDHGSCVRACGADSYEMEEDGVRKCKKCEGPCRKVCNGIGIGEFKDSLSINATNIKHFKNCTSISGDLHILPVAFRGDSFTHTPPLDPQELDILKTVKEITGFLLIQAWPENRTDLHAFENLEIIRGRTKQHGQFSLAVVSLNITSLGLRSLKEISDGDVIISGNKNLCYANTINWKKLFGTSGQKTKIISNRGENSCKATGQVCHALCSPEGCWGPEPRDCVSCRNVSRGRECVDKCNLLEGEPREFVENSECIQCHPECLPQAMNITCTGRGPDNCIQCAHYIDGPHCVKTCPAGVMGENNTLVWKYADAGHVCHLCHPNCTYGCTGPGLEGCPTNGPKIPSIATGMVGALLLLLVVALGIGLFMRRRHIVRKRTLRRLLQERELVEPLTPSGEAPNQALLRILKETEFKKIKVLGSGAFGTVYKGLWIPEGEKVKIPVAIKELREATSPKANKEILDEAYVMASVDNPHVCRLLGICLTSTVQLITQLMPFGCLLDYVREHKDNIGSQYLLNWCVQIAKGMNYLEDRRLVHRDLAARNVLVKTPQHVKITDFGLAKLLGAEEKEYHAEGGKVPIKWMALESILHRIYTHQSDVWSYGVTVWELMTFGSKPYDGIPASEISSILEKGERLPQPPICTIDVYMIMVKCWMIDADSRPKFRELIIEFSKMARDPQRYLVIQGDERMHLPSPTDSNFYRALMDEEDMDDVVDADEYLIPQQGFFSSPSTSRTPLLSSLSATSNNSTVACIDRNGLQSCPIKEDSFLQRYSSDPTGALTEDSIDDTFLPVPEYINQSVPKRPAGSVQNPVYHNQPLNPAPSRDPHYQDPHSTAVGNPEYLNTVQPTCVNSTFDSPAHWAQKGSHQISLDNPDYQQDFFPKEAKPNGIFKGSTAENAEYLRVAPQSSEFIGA
Chain of KDR (VEGFR2) (P35968 790-1356): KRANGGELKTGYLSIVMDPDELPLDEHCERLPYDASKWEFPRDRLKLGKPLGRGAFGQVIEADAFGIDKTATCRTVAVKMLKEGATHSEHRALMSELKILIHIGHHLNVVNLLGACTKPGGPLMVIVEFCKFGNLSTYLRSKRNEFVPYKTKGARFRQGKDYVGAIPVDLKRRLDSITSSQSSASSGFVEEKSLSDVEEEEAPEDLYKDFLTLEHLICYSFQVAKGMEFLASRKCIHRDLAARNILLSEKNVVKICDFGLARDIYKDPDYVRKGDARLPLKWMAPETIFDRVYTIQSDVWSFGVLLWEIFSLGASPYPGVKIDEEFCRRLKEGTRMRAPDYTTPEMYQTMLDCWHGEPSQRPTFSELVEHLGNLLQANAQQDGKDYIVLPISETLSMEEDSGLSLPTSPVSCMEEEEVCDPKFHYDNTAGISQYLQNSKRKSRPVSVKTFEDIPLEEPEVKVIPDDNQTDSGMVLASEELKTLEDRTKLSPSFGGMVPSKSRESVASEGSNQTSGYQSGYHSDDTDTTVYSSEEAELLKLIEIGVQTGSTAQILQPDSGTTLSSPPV

Regarding `O=C(NC1CC1)c1cccc(F)c1Sc1ccc2c(/C=C/c3cnn(CCCN4CCCC4)c3)n[nH]c2c1` [Compound I-44, N-cyclopropyl-3-fluoro-2-({3-[(E)-2-{1-[3-(pyrrolidin-1-yl)propyl]-1H-pyrazol-4-yl}vinyl]-1H-indazol-6-yl}thio)benzamide], the fraction unbound at 2 h, 2 μM in the data set on melanin lay in the range of 0.01 to 0.05.

For `CN(C)CCOc1ccc(/C=C/c2n[nH]c3cc(Sc4ccccc4C(=O)NC4CC4)ccc23)nc1` [Compound I-51, N-cyclopropyl-2-({3-[(E)-2-{5-[2-(dimethylamino)ethoxy]pyridin-2-yl}vinyl]-1H-indazol-6-yl}thio)benzamide], in the data set with melanin, the fraction unbound at 2 h, 2 μM lay within 0.01 to 0.05.

As for `CCN(C)CCOc1ccc(/C=C/c2n[nH]c3cc(Sc4ccccc4C(=O)NC4CC4)ccc23)nc1` [Compound I-52, N-cyclopropyl-2-({3-[(E)-2-{5-[2-(diethylamino)ethoxy]pyridin-2-yl}vinyl]-1H-indazol-6-yl}thio)benzoyl], the fraction unbound at 2 h, 2 μM with melanin was greater than 0.05.

As for `O=C(NC1CC1)c1ccccc1Sc1ccc2c(/C=C/c3ccc(OCCN4CCCCC4)cn3)n[nH]c2c1` [Compound I-53, N-cyclopropyl-2-({3-[(E)-2-{5-[2-(piperidin-1-yl)ethoxy]pyridin-2-yl}vinyl]-1H-indazol-6-yl}thio)benzamide], the fraction unbound at 2 h, 2 μM with melanin is greater than 0.05.

`CCNC(=O)c1ccccc1Sc1ccc2c(/C=C/c3ccc(CN4CCCC4)cn3)n[nH]c2c1` [Compound I-73, N-ethyl-2-({3-[(E)-2-{5-[(pyrrolidin-1-yl)methyl]pyridin-2-yl}vinyl]-1H-indazol-6-yl}thio)benzamide]: in the data set on melanin, the fraction unbound at 2 h, 2 μM lay in the range of 0.01 to 0.05. Besides, the IC50 (as a rule, the point on the concentration scale where inhibition reaches its midpoint) at EGFR was 6000 to 60000 nM; at KDR (VEGFR2) it was 1 to 10 nM.

Consider `CNC(=O)c1cccc(F)c1Sc1ccc2c(/C=C/c3cnn(CCCN4CCCC4)c3)n[nH]c2c1` [Compound I-76, 3-fluoro-N-methyl-2-({3-[(E)-2-{1-[3-(pyrrolidin-1-yl)propyl]-1H-pyrazol-4-yl}vinyl]-1H-indazol-6-yl}thio)benzamide], for which, in the data set on melanin, the fraction unbound at 2 h, 2 μM was greater than 0.05. Also, the IC50 at EGFR was in the range of 600 to 6000 nM; on KDR (VEGFR2), 1 to 10 nM.

Turning to `O=C(NC1CC1)c1cc(F)ccc1Sc1ccc2c(/C=C/c3cc(CCN4CCCC4)ccn3)n[nH]c2c1` [Compound I-135, N-cyclopropyl-5-fluoro-2-({3-[(E)-2-{4-[2-(pyrrolidin-1-yl)ethyl]pyridin-2-yl}vinyl]-1H-indazol-6-yl}thio)benzamide], the IC50 at EGFR is greater than 60000 nM; at KDR (VEGFR2), 10 to 100 nM.

For `O=C(NC1CC1)c1cc(F)ccc1Sc1ccc2c(/C=C/c3cccc(CCN4CCCC4)n3)n[nH]c2c1` [Compound I-136, N-cyclopropyl-5-fluoro-2-({3-[(E)-2-{6-[2-(pyrrolidin-1-yl)ethyl]pyridin-2-yl}vinyl]-1H-indazol-6-yl}thio)benzamide], the results for the half-inhibitory concentration (IC50) on EGFR and on KDR (VEGFR2) were greater than 60000 nM and 1 to 10 nM, respectively.

Regarding `O=C(NC1CC1)c1cc(F)ccc1Sc1ccc2c(/C=C/c3cc(CN4CCCC4)ccn3)n[nH]c2c1` [Compound I-137, N-cyclopropyl-5-fluoro-2-({3-[(E)-2-{4-[(pyrrolidin-1-yl)methyl]pyridin-2-yl}vinyl]-1H-indazol-6-yl}thio)benzamide], the IC50 at EGFR was greater than 60000 nM; on KDR (VEGFR2), 1 to 10 nM.

Regarding `O=C(NC1CC1)c1cc(F)ccc1Sc1ccc2c(/C=C/c3cccc(CN4CCCC4)n3)n[nH]c2c1` [Compound I-138, N-cyclopropyl-5-fluoro-2-({3-[(E)-2-{6-[(pyrrolidin-1-yl)methyl]pyridin-2-yl}vinyl]-1H-indazol-6-yl}thio)benzamide], the values for the IC50 at EGFR and at KDR (VEGFR2) were greater than 60000 nM and 1 to 10 nM, respectively.

As for `O=C(NC1CC1)c1ccccc1Sc1ccc2c(C#Cc3ccc(OCCN4CCCC4)cn3)n[nH]c2c1` [Compound I-139, N-cyclopropyl-2-{[3-(2-{5-[2-(pyrrolidin-1-yl)ethoxy]pyridin-2-yl}ethynyl)-1H-indazol-6-yl]thio}benzamide], the results for the IC50 on EGFR and at KDR (VEGFR2) were greater than 60000 nM and 10 to 100 nM, respectively.
